Data: the NIST ThermoML archive (doi:10.1016/j.jct.2016.08.004)
± gives the expanded uncertainty stated by the source.

Assay: mn = molality of the nth substance listed, in mol/kg
Conditions: 101 kPa, Liquid; for viscosity: Capillary tube (Ostwald / Ubbelohde) method; for mass density: Vibrating tube method

Cc1ncc(CO)c(CO)c1O.Cl [5-hydroxy-6-methyl-3,4-pyridinedimethanol hydrochloride] + O
Conditions | mass density, 288.15 K [kg/m3] | mass density, 298.15 K [kg/m3] | mass density, 308.15 K [kg/m3] | mass density, 318.15 K [kg/m3] | viscosity, 288.15 K [mPa·s] | viscosity, 298.15 K [mPa·s] | viscosity, 308.15 K [mPa·s] | viscosity, 318.15 K [mPa·s]
m1 = 0.0202 | 1000.32 ± 1.1 | 998.28 ± 1.1 | 995.25 ± 1.1 | 991.43 ± 1.1 | 1.145 ± 0.022 | 0.8984 ± 0.021 | 0.7266 ± 0.021 | 0.6009 ± 0.021
m1 = 0.0365 | 1001.26 ± 1.1 | 999.22 ± 1.1 | 996.18 ± 1.1 | 992.35 ± 1.1 | 1.151 ± 0.022 | 0.9043 ± 0.021 | 0.7312 ± 0.021 | 0.6048 ± 0.021
m1 = 0.0529 | 1002.19 ± 1.1 | 1000.15 ± 1.1 | 997.09 ± 1.1 | 993.26 ± 1.1 | 1.157 ± 0.022 | 0.9103 ± 0.021 | 0.7358 ± 0.021 | 0.6087 ± 0.021
m1 = 0.0695 | 1003.11 ± 1.1 | 1001.07 ± 1.1 | 997.99 ± 1.1 | 994.16 ± 1.1 | 1.163 ± 0.022 | 0.9163 ± 0.021 | 0.7404 ± 0.021 | 0.6127 ± 0.021
m1 = 0.0863 | 1003.98 ± 1.1 | 1001.99 ± 1.1 | 998.89 ± 1.1 | 995.06 ± 1.1 | 1.169 ± 0.022 | 0.9224 ± 0.022 | 0.7451 ± 0.021 | 0.6168 ± 0.021
m1 = 0.1032 | 1004.86 ± 1.1 | 1002.9 ± 1.1 | 999.78 ± 1.1 | 995.96 ± 1.1 | 1.175 ± 0.022 | 0.9286 ± 0.022 | 0.7498 ± 0.021 | 0.6209 ± 0.021
